We go through one molecule from ChEMBL document CHEMBL1148139, “Antiangiogenic activity of synthetic dihydrobenzofuran lignans” (J Nat Prod, 2002).

Series [1] in a line: Toxicity to fertilized chicken eggs assessed as membrane irritating activity at 20 ug/pellet. Details: species or system Gallus gallus. Conditions: in vivo, other.
The species entered for series [2] is Gallus gallus. Nature of the series: Antiangiogenic activity in fertilized chicken eggs at 20 ug/pellet by CAM assay. It counts as functional. Conditions: Egg.
The species named for series [3] is Gallus gallus. Nature of the series: Antiangiogenic activity in fertilized chicken eggs at 5 ug/pellet by CAM assay. It counts as functional. Conditions: Egg.

The source made the active and inactive calls. No cut-off for these calls is given here.

Turning to `COC(=O)/C=C/c1cc(O)c2c(c1)[C@@H](C(=O)OC)[C@H](c1ccc(O)c(O)c1)O2`, the Activity in series [1] stood at 50%. Moreover, the result in the series filed under Gallus gallus [2] and in the series filed under Gallus gallus [3] was Active.
